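Five concentrations, 48 hours, 96-well plates. GI50: concentration for 50% inhibition of growth.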 Activity calls are given as the source filed them. No stated cut-off is given here; in the data, active = GI50 up to about 1.1 µM and inactive = higher.
Key:
Experiment in all cases: NCI-60 cell line screen, 48 h
SNB-19 = system: SNB-19
ACHN = system: ACHN
786-0 = system: 786-0
MDA-N = system: MDA-N
RPMI-8226 = system: RPMI-8226
SK-MEL-2 = system: SK-MEL-2
HCC 2998 = system: HCC 2998
NCI-H522 = system: NCI-H522
NCI-H226 = system: NCI-H226
HCT-116 = system: HCT-116
UACC-62 = system: UACC-62
SR = system: SR
SK-MEL-28 = system: SK-MEL-28
MCF7 = system: MCF7
OVCAR-5 = system: OVCAR-5
BT-549 = system: BT-549
Malme-3M = system: Malme-3M
MDA-MB-231 = system: MDA-MB-231
CCRF-CEM = system: CCRF-CEM
MOLT-4 = system: MOLT-4

| Structure (SMILES) | GI50 (SNB-19) | GI50 (ACHN) | GI50 (786-0) | GI50 (MDA-N) | GI50 (RPMI-8226) | GI50 (SK-MEL-2) | GI50 (HCC 2998) | GI50 (NCI-H522) | GI50 (NCI-H226) | GI50 (HCT-116) | GI50 (UACC-62) | GI50 (SR) | GI50 (SK-MEL-28) | GI50 (MCF7) | GI50 (OVCAR-5) | GI50 (BT-549) | GI50 (Malme-3M) | GI50 (MDA-MB-231) | GI50 (CCRF-CEM) | GI50 (MOLT-4) |
| --- | --- | --- | --- | --- | --- | --- | --- | --- | --- | --- | --- | --- | --- | --- | --- | --- | --- | --- | --- | --- |
| O=C(O)c1cc(C(=O)O)cc(N2C(=O)c3ccccc3C2=O)c1 | > 100 µM (inactive) | > 100 µM (inactive) | > 100 µM (inactive) | > 100 µM (inactive) | > 100 µM (inactive) | > 100 µM (inactive) | > 100 µM (inactive) | > 100 µM (inactive) | > 100 µM (inactive) | > 100 µM (inactive) | > 100 µM (inactive) | > 100 µM (inactive) | > 100 µM (inactive) | > 100 µM (inactive) | > 100 µM (inactive) | > 100 µM (inactive) | > 100 µM (inactive) | > 100 µM (inactive) | – | – |
| COc1ccc(C(CC2(c3ccc(OC)cc3)SCCCS2)NC(C)=O)cc1 (stereo not drawn) | 99.1 µM (inactive) | 63 µM (inactive) | > 100 µM (inactive) | 61 µM (inactive) | 38.5 µM (inactive) | 41.3 µM (inactive) | 42.6 µM (inactive) | 29.2 µM (inactive) | – | 56.1 µM (inactive) | > 100 µM (inactive) | 71.3 µM (inactive) | > 100 µM (inactive) | 37.2 µM (inactive) | > 100 µM (inactive) | 41.9 µM (inactive) | 86.9 µM (inactive) | > 100 µM (inactive) | 21.9 µM (inactive) | 30.1 µM (inactive) |
| Cn1c(-c2ccccc2)c2cc3nc4ccccc4nc3cc2c1-c1ccccc1 | 20.2 µM (inactive) | 17.7 µM (inactive) | – | 5.87 µM (inactive) | 12.1 µM (inactive) | 17.7 µM (inactive) | – | 15.2 µM (inactive) | – | 23.2 µM (inactive) | 11.7 µM (inactive) | 4.56 µM (inactive) | 34.9 µM (inactive) | 12.1 µM (inactive) | 52.2 µM (inactive) | 21.6 µM (inactive) | 30.1 µM (inactive) | 24.2 µM (inactive) | – | 21 µM (inactive) |
| O=c1c(-c2ccccc2)nnc2n(Cc3ccccc3)c3ccccc3n12 | > 100 µM (inactive) | > 100 µM (inactive) | > 100 µM (inactive) | > 100 µM (inactive) | – | > 100 µM (inactive) | > 100 µM (inactive) | 26.7 µM (inactive) | 22.5 µM (inactive) | > 100 µM (inactive) | – | > 100 µM (inactive) | > 100 µM (inactive) | > 100 µM (inactive) | > 100 µM (inactive) | > 100 µM (inactive) | > 100 µM (inactive) | > 100 µM (inactive) | > 100 µM (inactive) | > 100 µM (inactive) |
| Nc1nc2c(c(-c3ccccc3Cl)n1)COC/C2=C\c1ccccc1Cl | 15.7 µM (inactive) | 17.9 µM (inactive) | 17.2 µM (inactive) | 10.9 µM (inactive) | 10.6 µM (inactive) | 16.9 µM (inactive) | 19.5 µM (inactive) | 14.6 µM (inactive) | 18.8 µM (inactive) | 15.8 µM (inactive) | 16 µM (inactive) | 5.16 µM (inactive) | – | 14.5 µM (inactive) | 17.2 µM (inactive) | 16 µM (inactive) | – | 16.9 µM (inactive) | 11.7 µM (inactive) | 12.9 µM (inactive) |
| NC(Cc1ccccc1)c1nn[nH]n1 (stereo not drawn) | > 100 µM (inactive) | > 100 µM (inactive) | > 100 µM (inactive) | > 100 µM (inactive) | > 100 µM (inactive) | > 100 µM (inactive) | – | > 100 µM (inactive) | > 100 µM (inactive) | > 100 µM (inactive) | > 100 µM (inactive) | > 100 µM (inactive) | > 100 µM (inactive) | > 100 µM (inactive) | > 100 µM (inactive) | > 100 µM (inactive) | > 100 µM (inactive) | > 100 µM (inactive) | > 100 µM (inactive) | < 0.01 µM (active) |
| CCOC(=O)C(c1c[nH]c2ccccc12)(c1c[nH]c2ccccc12)c1c[nH]c2ccccc12 | 26.5 µM (inactive) | 37.1 µM (inactive) | 44.5 µM (inactive) | 31.9 µM (inactive) | 11.7 µM (inactive) | 18.8 µM (inactive) | 17.1 µM (inactive) | 27 µM (inactive) | – | 29.2 µM (inactive) | 25.9 µM (inactive) | 23.6 µM (inactive) | 33.7 µM (inactive) | 19.7 µM (inactive) | 55 µM (inactive) | 44.4 µM (inactive) | 30.4 µM (inactive) | 36.8 µM (inactive) | 17.2 µM (inactive) | 5.87 µM (inactive) |
| O=C1CSC(c2ccccc2O)N1c1ccc(-c2ccc(-n3c(-c4ccccc4)nc4ccccc4c3=O)cc2)cc1 (stereo not drawn) | 50.6 µM (inactive) | – | 18.7 µM (inactive) | 35.5 µM (inactive) | 33.6 µM (inactive) | – | – | 19.2 µM (inactive) | 37.6 µM (inactive) | 29.5 µM (inactive) | 27.7 µM (inactive) | 54.3 µM (inactive) | 37.9 µM (inactive) | 28.1 µM (inactive) | 43.1 µM (inactive) | 13.7 µM (inactive) | 17.2 µM (inactive) | 36.9 µM (inactive) | 26.4 µM (inactive) | 25.4 µM (inactive) |
| CCOP(=O)(OCC)/C(C#N)=C/c1cn(C)cn1 | > 100 µM (inactive) | > 100 µM (inactive) | – | > 100 µM (inactive) | – | > 100 µM (inactive) | > 100 µM (inactive) | > 100 µM (inactive) | > 100 µM (inactive) | – | > 100 µM (inactive) | > 100 µM (inactive) | > 100 µM (inactive) | > 100 µM (inactive) | > 100 µM (inactive) | > 100 µM (inactive) | > 100 µM (inactive) | > 100 µM (inactive) | > 100 µM (inactive) | > 10 µM (inactive) |
| O=C1CC(c2cccc(Cl)c2)Nc2ccc(N3CCCC3)cc21 (stereo not drawn) | 0.0332 µM (active) | 0.0524 µM (active) | 0.0577 µM (active) | 0.00359 µM (active) | 0.0802 µM (active) | 0.0546 µM (active) | 0.335 µM (active) | 0.0191 µM (active) | 0.0721 µM (active) | 0.0385 µM (active) | 0.0537 µM (active) | 0.0304 µM (active) | 0.189 µM (active) | 0.555 µM (active) | 0.526 µM (active) | 1.29 µM (inactive) | – | 0.366 µM (active) | 0.0302 µM (active) | 0.0802 µM (active) |
| O=P1(N(CCCl)CCCl)Oc2ccc(Cl)cc2Sc2c(ccc(Cl)c2Cl)O1 (stereo not drawn) | – | 7.41 µM (inactive) | 8.13 µM (inactive) | 7.91 µM (inactive) | 5.02 µM (inactive) | 9.68 µM (inactive) | 16.5 µM (inactive) | 6.4 µM (inactive) | 8.26 µM (inactive) | 4.97 µM (inactive) | 17.1 µM (inactive) | 2.99 µM (inactive) | 11.5 µM (inactive) | 6.38 µM (inactive) | 27.4 µM (inactive) | 29.1 µM (inactive) | – | 12.3 µM (inactive) | 4.41 µM (inactive) | 3.96 µM (inactive) |
